# Data as given in the kinase profiling compilation of Christmann-Franck et al. (2016).
# Assays:
# Assay in all cases: radiometric filter-binding kinase assay
# [1] = tested on: AKT2 (human), P31751 [S474D]
# AURKA (human) = AURKA (human) (UniProt O14965)
# AURKB (human) = AURKB (human) (UniProt Q96GD4)
# CHEK1 (human) = CHEK1 (human) (UniProt O14757)
# CSNK1D (human) = CSNK1D (human) (UniProt P48730)
# EEF2K (human) = EEF2K (human) (UniProt O00418)
# EPHB1 (human) = EPHB1 (human) (UniProt P54762)
# EPHB4 (human) = EPHB4 (human) (UniProt P54760)
# FGFR1 (human) = FGFR1 (human) (UniProt P11362)
# FLT1 (human) = FLT1 (human) (UniProt P17948)
# GCK (human) = GCK (human) (UniProt Q12851)
# GSK3B (human) = GSK3B (human) (UniProt P49841)
# HIPK1 (human) = HIPK1 (human) (UniProt Q86Z02)
# HIPK2 (human) = HIPK2 (human) (UniProt Q9H2X6)
# IGF1R (human) = IGF1R (human) (UniProt P08069)
# MAP2K2 (human) = MAP2K2 (human) (UniProt P36507)
# MAP3K1 (human) = MAP3K1 (human) (UniProt Q13233)
# MAP3K5 (human) = MAP3K5 (human) (UniProt Q99683)
# MAP3K9 (human) = MAP3K9 (human) (UniProt P80192)
# MAPK1 (human) = MAPK1 (human) (UniProt P28482)
# MAPK10 (human) = MAPK10 (human) (UniProt P53779)
# MAPK13 (human) = MAPK13 (human) (UniProt O15264)
# MAPK9 (human) = MAPK9 (human) (UniProt P45984); settings: compound 50.0 µM
# MARK4 (human) = MARK4 (human) (UniProt Q96L34)
# MELK (human) = MELK (human) (UniProt Q14680)
# MYLK (human) = MYLK (human) (UniProt Q15746)
# [2] = tested on: PAK2 (human), Q13177 [T402E]
# PAK6 (human) = PAK6 (human) (UniProt Q9NQU5)
# PKN2 (human) = PKN2 (human) (UniProt Q16513)
# PRKCZ (human) = PRKCZ (human) (UniProt Q05513)
# SRC (human) = SRC (human) (UniProt P12931)
# [3] = target: STK11 CAB39 STRADA (human) (UniProt Q9Y376+Q7RTN6+Q15831)
# SYK (human) = SYK (human) (UniProt P43405)
# TAOK1 (human) = TAOK1 (human) (UniProt Q7L7X3)
# TTK (human) = TTK (human) (UniProt P33981)
# YES1 (human) = YES1 (human) (UniProt P07947)
# Sequence of CSNK1D (human) (P48730 whole entry, looked up): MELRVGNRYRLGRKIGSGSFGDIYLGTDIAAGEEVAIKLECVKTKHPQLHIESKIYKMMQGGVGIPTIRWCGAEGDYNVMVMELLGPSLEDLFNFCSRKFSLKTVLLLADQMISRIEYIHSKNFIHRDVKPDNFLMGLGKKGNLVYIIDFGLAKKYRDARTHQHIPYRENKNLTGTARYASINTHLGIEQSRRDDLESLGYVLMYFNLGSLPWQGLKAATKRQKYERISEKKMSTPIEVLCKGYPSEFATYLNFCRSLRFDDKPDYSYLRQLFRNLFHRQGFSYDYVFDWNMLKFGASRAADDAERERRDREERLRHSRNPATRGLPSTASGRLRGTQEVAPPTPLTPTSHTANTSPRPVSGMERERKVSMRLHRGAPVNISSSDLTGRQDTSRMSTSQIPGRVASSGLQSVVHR
# Sequence of SRC (human) (P12931 whole entry, looked up): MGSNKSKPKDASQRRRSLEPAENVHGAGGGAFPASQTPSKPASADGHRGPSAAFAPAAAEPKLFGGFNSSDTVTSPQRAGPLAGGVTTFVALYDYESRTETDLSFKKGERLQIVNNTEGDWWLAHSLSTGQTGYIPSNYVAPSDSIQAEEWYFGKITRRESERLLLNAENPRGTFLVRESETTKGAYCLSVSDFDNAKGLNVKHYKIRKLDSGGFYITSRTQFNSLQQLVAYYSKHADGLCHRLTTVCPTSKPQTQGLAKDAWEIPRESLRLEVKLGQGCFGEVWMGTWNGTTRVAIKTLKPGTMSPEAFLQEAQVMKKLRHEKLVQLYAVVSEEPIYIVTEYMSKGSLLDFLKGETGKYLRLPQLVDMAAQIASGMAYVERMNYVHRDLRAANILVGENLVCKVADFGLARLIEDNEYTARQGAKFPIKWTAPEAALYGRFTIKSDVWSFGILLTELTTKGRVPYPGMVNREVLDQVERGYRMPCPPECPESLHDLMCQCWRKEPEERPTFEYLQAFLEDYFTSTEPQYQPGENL
# Sequence of GSK3B (human) (P49841 whole entry, looked up): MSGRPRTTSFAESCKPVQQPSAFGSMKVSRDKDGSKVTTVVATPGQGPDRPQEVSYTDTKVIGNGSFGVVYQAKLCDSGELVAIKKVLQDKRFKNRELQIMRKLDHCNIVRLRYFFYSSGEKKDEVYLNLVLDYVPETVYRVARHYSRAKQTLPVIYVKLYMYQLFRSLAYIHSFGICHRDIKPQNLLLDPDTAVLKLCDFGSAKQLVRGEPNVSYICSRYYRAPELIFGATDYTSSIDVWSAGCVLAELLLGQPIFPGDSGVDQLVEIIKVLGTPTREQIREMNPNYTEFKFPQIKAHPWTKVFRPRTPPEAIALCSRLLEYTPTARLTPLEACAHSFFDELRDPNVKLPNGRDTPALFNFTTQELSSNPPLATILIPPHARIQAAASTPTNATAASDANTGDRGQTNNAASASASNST
# Sequence of AURKB (human) (Q96GD4 whole entry, looked up): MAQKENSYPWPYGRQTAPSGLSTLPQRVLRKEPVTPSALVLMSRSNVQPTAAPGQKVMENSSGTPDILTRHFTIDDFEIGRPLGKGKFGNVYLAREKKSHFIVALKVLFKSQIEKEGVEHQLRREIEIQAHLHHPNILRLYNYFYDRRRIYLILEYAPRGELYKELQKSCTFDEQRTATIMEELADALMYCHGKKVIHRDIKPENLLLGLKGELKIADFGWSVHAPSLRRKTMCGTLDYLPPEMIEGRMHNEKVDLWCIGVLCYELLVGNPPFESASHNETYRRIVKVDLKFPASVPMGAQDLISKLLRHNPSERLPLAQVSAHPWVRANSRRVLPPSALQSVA
# Sequence of MAPK10 (human) (P53779 whole entry, looked up): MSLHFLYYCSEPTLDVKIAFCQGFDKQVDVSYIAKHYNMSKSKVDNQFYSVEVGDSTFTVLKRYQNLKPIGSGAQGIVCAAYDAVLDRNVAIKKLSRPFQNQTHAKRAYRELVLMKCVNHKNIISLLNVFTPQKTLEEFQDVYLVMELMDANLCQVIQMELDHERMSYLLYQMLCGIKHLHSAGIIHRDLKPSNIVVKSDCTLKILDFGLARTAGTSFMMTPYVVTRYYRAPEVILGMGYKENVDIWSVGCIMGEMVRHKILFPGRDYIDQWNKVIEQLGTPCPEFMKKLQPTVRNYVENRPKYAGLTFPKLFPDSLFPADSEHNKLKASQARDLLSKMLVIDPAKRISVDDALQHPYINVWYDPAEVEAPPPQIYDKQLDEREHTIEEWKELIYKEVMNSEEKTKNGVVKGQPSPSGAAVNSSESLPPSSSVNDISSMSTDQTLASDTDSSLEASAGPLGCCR
# Sequence of MAPK13 (human) (O15264 whole entry, looked up): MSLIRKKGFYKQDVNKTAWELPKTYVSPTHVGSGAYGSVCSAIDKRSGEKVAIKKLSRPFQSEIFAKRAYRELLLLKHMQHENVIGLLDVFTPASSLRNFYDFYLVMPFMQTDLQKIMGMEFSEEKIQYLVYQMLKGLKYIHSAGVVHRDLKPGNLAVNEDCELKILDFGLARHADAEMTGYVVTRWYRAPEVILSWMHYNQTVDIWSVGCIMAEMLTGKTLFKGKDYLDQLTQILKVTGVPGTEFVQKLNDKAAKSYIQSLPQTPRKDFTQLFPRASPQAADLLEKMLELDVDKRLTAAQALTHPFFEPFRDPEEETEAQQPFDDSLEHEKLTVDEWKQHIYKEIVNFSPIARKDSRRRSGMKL
# Sequence of MAPK1 (human) (P28482 whole entry, looked up): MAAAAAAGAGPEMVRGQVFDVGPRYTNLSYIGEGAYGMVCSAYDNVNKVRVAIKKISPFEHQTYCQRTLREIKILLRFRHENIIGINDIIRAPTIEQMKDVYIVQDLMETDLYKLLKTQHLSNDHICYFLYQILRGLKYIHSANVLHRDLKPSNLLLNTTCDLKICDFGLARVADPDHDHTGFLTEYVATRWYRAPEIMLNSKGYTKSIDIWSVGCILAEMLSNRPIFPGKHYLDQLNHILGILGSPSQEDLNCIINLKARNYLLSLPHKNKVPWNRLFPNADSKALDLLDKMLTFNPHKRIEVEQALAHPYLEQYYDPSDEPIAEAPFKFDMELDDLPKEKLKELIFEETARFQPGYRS
# Sequence of EEF2K (human) (O00418 whole entry, looked up): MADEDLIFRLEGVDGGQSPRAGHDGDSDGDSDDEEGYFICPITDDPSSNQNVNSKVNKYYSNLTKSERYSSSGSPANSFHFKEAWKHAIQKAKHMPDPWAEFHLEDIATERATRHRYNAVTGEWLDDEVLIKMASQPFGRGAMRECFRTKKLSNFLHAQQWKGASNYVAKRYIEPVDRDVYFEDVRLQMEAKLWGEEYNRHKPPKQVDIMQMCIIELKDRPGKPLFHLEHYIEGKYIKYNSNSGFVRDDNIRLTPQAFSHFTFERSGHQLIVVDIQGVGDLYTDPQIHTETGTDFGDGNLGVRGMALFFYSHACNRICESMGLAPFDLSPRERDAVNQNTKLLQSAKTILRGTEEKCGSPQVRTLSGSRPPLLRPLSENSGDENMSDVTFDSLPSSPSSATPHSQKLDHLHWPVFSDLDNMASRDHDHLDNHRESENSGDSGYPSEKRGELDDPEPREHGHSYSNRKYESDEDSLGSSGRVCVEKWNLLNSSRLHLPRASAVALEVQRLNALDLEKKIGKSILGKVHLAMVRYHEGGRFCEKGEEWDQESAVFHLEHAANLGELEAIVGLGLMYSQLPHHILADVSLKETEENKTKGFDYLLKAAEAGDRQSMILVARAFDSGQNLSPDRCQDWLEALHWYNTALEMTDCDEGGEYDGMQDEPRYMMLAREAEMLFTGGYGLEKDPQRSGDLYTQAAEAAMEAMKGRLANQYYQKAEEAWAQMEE
# Sequence of CHEK1 (human) (O14757 whole entry, looked up): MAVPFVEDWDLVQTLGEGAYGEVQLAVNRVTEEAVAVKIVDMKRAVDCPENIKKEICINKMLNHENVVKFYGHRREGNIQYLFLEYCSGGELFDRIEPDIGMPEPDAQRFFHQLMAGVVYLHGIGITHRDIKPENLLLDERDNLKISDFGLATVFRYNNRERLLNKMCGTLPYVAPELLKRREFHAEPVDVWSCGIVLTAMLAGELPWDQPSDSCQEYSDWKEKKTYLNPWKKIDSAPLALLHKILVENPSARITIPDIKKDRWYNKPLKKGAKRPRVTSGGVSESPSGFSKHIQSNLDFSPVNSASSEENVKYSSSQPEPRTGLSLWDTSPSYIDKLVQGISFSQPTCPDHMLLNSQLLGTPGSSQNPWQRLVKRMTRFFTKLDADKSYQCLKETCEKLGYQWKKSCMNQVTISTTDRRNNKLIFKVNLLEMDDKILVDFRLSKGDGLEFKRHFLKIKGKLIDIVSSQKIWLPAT
# Sequence of MELK (human) (Q14680 whole entry, looked up): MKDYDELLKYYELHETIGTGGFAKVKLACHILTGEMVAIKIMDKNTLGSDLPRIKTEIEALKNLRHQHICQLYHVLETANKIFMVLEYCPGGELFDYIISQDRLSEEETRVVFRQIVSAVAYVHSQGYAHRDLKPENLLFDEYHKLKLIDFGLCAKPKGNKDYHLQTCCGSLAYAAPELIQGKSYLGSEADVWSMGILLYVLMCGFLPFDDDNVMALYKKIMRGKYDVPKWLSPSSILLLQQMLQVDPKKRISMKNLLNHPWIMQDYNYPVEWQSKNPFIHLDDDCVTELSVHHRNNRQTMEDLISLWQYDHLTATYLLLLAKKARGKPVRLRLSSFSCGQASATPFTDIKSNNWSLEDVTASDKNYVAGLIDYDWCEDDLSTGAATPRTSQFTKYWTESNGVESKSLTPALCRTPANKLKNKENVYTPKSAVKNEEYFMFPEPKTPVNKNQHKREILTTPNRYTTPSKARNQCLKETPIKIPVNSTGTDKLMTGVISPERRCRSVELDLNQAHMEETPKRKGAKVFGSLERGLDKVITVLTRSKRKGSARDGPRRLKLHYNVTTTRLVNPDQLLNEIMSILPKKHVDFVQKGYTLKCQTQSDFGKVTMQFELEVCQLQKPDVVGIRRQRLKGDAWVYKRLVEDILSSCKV
structure (smiles),measurement,setting,value
CCCC(CCC)C(=O)O,residual activity,[1]; compound 10.0 µM,86%
same,residual activity,[1]; compound 50.0 µM,80%
same,residual activity,AURKA (human); compound 10.0 µM,107%
same,residual activity,AURKA (human); compound 50.0 µM,111%
same,residual activity,AURKB (human); compound 1.0 µM,90%
same,residual activity,AURKB (human); compound 10.0 µM,99%
same,residual activity,AURKB (human); compound 50.0 µM,83%
same,residual activity,CHEK1 (human); compound 1.0 µM,82%
same,residual activity,CHEK1 (human); compound 10.0 µM,95%
same,residual activity,CHEK1 (human); compound 50.0 µM,95%
same,residual activity,CSNK1D (human); compound 1.0 µM,108%
same,residual activity,CSNK1D (human); compound 10.0 µM,107%
same,residual activity,CSNK1D (human); compound 50.0 µM,90%
same,residual activity,EEF2K (human); compound 1.0 µM,97%
same,residual activity,EEF2K (human); compound 10.0 µM,61%
same,residual activity,EEF2K (human); compound 50.0 µM,71%
same,residual activity,EPHB1 (human); compound 10.0 µM,107%
same,residual activity,EPHB1 (human); compound 50.0 µM,106%
same,residual activity,EPHB4 (human); compound 10.0 µM,98%
same,residual activity,EPHB4 (human); compound 50.0 µM,97%
same,residual activity,FGFR1 (human); compound 10.0 µM,104%
same,residual activity,FGFR1 (human); compound 50.0 µM,104%
same,residual activity,FLT1 (human); compound 10.0 µM,84%
same,residual activity,FLT1 (human); compound 50.0 µM,89%
same,residual activity,GCK (human); compound 10.0 µM,87%
same,residual activity,GCK (human); compound 50.0 µM,98%
same,residual activity,GSK3B (human); compound 1.0 µM,74%
same,residual activity,GSK3B (human); compound 10.0 µM,79%
same,residual activity,GSK3B (human); compound 50.0 µM,76%
same,residual activity,HIPK1 (human); compound 10.0 µM,84%
same,residual activity,HIPK1 (human); compound 50.0 µM,94%
same,residual activity,HIPK2 (human); compound 10.0 µM,86%
same,residual activity,HIPK2 (human); compound 50.0 µM,92%
same,residual activity,IGF1R (human); compound 10.0 µM,76%
same,residual activity,IGF1R (human); compound 50.0 µM,56%
same,residual activity,MAP2K2 (human); compound 10.0 µM,102%
same,residual activity,MAP2K2 (human); compound 50.0 µM,92%
same,residual activity,MAP3K1 (human); compound 10.0 µM,107%
same,residual activity,MAP3K1 (human); compound 50.0 µM,96%
same,residual activity,MAP3K5 (human); compound 10.0 µM,92%
same,residual activity,MAP3K5 (human); compound 50.0 µM,83%
same,residual activity,MAP3K9 (human); compound 10.0 µM,94%
same,residual activity,MAP3K9 (human); compound 50.0 µM,102%
same,residual activity,MAPK1 (human); compound 1.0 µM,98%
same,residual activity,MAPK1 (human); compound 10.0 µM,77%
same,residual activity,MAPK1 (human); compound 50.0 µM,80%
same,residual activity,MAPK10 (human); compound 1.0 µM,88%
same,residual activity,MAPK10 (human); compound 10.0 µM,85%
same,residual activity,MAPK10 (human); compound 50.0 µM,89%
same,residual activity,MAPK13 (human); compound 1.0 µM,106%
same,residual activity,MAPK13 (human); compound 10.0 µM,95%
same,residual activity,MAPK13 (human); compound 50.0 µM,92%
same,residual activity,MAPK9 (human),104%
same,residual activity,MARK4 (human); compound 10.0 µM,106%
same,residual activity,MARK4 (human); compound 50.0 µM,106%
same,residual activity,MELK (human); compound 10.0 µM,97%
same,residual activity,MELK (human); compound 50.0 µM,92%
same,residual activity,MYLK (human); compound 1.0 µM,98%
same,residual activity,MYLK (human); compound 50.0 µM,96%
same,residual activity,[2]; compound 10.0 µM,86%
same,residual activity,[2]; compound 50.0 µM,91%
same,residual activity,PAK6 (human); compound 10.0 µM,95%
same,residual activity,PAK6 (human); compound 50.0 µM,104%
same,residual activity,PKN2 (human); compound 1.0 µM,83%
same,residual activity,PKN2 (human); compound 10.0 µM,106%
same,residual activity,PRKCZ (human); compound 10.0 µM,101%
same,residual activity,PRKCZ (human); compound 50.0 µM,93%
same,residual activity,SRC (human); compound 1.0 µM,100%
same,residual activity,SRC (human); compound 10.0 µM,87%
same,residual activity,SRC (human); compound 50.0 µM,94%
same,residual activity,[3]; compound 10.0 µM,84%
same,residual activity,[3]; compound 50.0 µM,85%
same,residual activity,SYK (human); compound 10.0 µM,100%
same,residual activity,SYK (human); compound 50.0 µM,98%
same,residual activity,TAOK1 (human); compound 10.0 µM,93%
same,residual activity,TAOK1 (human); compound 50.0 µM,89%
same,residual activity,TTK (human); compound 10.0 µM,101%
same,residual activity,TTK (human); compound 50.0 µM,82%
same,residual activity,YES1 (human); compound 10.0 µM,91%
same,residual activity,YES1 (human); compound 50.0 µM,102%
